# Measurements from patent US11845730B2, “1,3-substituted cyclobutyl derivatives and uses thereof” (Novartis AG, priority 2021, dated 2023).
# Structures can show the parent of a compound that is named as a salt.
# Target: human TRPV1 (Homo sapiens (Human), UniProt Q8NER1)
# Conditions: read-out: IC50 (μM), antagonist effect against human TRPV1; CHO cells expressing human TrpV1; stimulated with 2.5 μM NADA (EC80); mean of at least three independent experiments
# Experimental: Chinese Hamster Ovary (CHO) cells transfected to express human TrpV1 receptor (which are herein referred to as CHO-huTrpV1 cells), were grown in F-12 Ham's Nutrient Mixture media (HyClone SH30026.01) supplemented with 10% Fetal Bovine Serum (Invitrogen #26140-079), 1% Antibiotic/antimycotic (Invitrogen #15240-062) and 500 ug/mL geneticin (ThermoFisher scientific #1031035). Cells were grown in T-75 flasks at 37° C. incubator with 5% CO2. The cells were passaged twice a week at a ratio of 1:10 to 1:20 to maintain steady growth. For experimentation, cells were harvested at approximately 80% confluency and plated onto 384 well black cell culture plates (cat #781091, Greinier Bio-One Inc.) at 15,000 cells per well in 20 μl media and grown overnight.
# The loading dye was prepared following instruction of Calcium 6 assay kit (Molecular Probes, #R8190): 10 ml buffer from bottle B was added to 1 vial of bottle A (adapted to room temperature from −20° C.) and mixed well, then 2.5 mM of fresh prepared probenecid, was added and mixed well. 20 μl/well of loading dye was added on top of the cells, and incubated at 37° C. for 1 hour 30 min.
# Assay buffer preparation: 1×HBSS, 2 mM HEPES, 0.1% BSA plus 2.5 mM freshly prepared probenecid (Invitrogen, #P36400). 25 μl/well assay buffer in 384 well clear plate (cat #782281, Greiner Bio-one) was dispensed with buffer distributor (Multidrop ComB1 from Thermo Scientific). The compounds were in 384 Echo plate (cat #LPL0200, Labcyte) and the starting concentration of compound was 10 mM, then 1 to 3 serial dilution in 100% DMSO, 8 ul/well). 125 nl compounds was transferred to the 384 well plate containing 25 μl/well buffer with Echo® 555 Liquid Handler (Labcyte), such that the compound concentration was 5 fold of final concentration. The plate was shook slowly at 40 rpm/min for 10 min to mix. 10 μl of 5 fold compound in the buffer was transferred to the cell plate (containing 20 μl cells and 20 μl dye) using Vertical Pipetting Station 384ST (Agilent Technologies). Six fold of final concentration of NADA (N-arachidonyl dopamine, cat #A8848, Sigma) in the assay buffer was prepared and 30 μl/well was distributed in 384 well clear plate.
# After compounds were added to the cell plate with loading dye, within 10-15 minutes, cell plate and plate containing NADA was placed into the FLIPR (Fluorescent Imaging Plate Reader) instrument (Tetra System, Molecular device). The TRPV1 receptor was stimulated by application of 10 μl per well of NADA. For testing the effect of compounds for possible antagonism, 2.5 μM NADA was used at the EC80 concentration.
# For determination of antagonist IC50 values (concentration of antagonist that inhibits response to NADA by 50%), at least 10 antagonist concentration were measured in triplicate. The response in the presence of the antagonist was calculated as a percentage of the control response to NADA and was plotted against the concentration of the antagonist. The IC50 was estimated by non-linear regression analysis to sigmoidal-logistic curves by HELIOS (PROD 2) system. These values were averaged (means and standard error of the mean) for at least three independent experiments.
# Sequence of human TRPV1 (Q8NER1 whole entry): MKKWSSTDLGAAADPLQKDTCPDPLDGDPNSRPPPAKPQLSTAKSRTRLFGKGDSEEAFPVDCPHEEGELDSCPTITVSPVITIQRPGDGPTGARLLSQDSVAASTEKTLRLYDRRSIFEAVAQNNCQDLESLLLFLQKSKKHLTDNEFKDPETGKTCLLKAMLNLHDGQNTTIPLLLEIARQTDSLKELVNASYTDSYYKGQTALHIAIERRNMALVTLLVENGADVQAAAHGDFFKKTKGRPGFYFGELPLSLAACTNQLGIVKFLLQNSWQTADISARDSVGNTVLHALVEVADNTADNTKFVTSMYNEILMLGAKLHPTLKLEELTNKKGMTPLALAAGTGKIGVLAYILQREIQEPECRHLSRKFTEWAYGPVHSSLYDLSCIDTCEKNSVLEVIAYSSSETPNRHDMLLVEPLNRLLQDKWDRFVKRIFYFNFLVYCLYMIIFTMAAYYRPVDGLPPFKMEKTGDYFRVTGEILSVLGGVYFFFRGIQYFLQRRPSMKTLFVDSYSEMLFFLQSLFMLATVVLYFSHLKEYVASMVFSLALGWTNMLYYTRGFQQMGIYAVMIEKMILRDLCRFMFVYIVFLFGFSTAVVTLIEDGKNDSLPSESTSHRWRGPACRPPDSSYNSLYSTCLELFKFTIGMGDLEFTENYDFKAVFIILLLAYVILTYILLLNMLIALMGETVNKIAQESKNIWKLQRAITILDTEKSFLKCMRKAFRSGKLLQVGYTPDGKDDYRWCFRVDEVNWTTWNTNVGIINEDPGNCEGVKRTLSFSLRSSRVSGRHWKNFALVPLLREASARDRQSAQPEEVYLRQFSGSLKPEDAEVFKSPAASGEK
row,Compound,IC50
1,"Fc1ccc2cnccc2c1CN[C@H]1C[C@H](Oc2ccnc(C(F)F)c2)C1 [Example 111, (1r,3r)-3-((2-(difluoromethyl)pyridin-4-yl)oxy)-N-((6-fluoroisoquinolin-5-yl)methyl)cyclobutan-1-amine]",1.65 µM
2,"Oc1ccc(CN[C@H]2C[C@H](Oc3ccc(F)c(C(F)(F)F)c3)C2)c2ccncc12 [Example 23, 5-((((1r,3r)-3-(4-fluoro-3-(trifluoromethyl)phenoxy)cyclobutyl)amino)methyl)isoquinolin-8-ol, HCl]",0.232 µM
3,"Fc1ccc(O[C@H]2C[C@H](NCc3cccc4cnccc34)C2)cc1C(F)(F)F [Example 22, (1r,3r)-3-(4-fluoro-3-(trifluoromethyl)phenoxy)-N-(isoquinolin-5-ylmethyl)cyclobutan-1-amine, HCl]",0.436 µM
4,"OCc1cc(F)c(CN[C@H]2C[C@@H](Oc3ccc(F)c(C(F)(F)F)c3)C2)c2ccncc12 [Example 89, (6-fluoro-5-((((1s,3s)-3-(4-fluoro-3-(trifluoromethyl)phenoxy)cyclobutyl)amino)methyl)isoquinolin-8-yl)methanol, HCl]",0.44 µM
5,"Nc1cc2c(CN[C@H]3C[C@H](Oc4ccc(F)c(C(F)(F)F)c4)C3)cccc2cn1 [Example 13, 5-((((1r,3r)-3-(4-fluoro-3-(trifluoromethyl)phenoxy)cyclobutyl)amino)methyl)isoquinolin-3-amine]",0.0637 µM
6,"Cc1c(F)cc(O[C@H]2C[C@H](NCc3c(F)cc(CO)c4cnccc34)C2)cc1F [Example 53, (5-((((1r,3r)-3-(3,5-difluoro-4-methylphenoxy)cyclobutyl)amino)methyl)-6-fluoroisoquinolin-8-yl)methanol]",0.0769 µM
7,"Fc1ccc2cnccc2c1CN[C@H]1C[C@H](Oc2ccc3c(c2)OC(F)(F)C(F)(F)O3)C1 [Example 39, (1r,3r)-N-((6-fluoroisoquinolin-5-yl)methyl)-3-((2,2,3,3-tetrafluoro-2,3-dihydrobenzo[b][1,4]dioxin-6-yl)oxy)cyclobutan-1-amine, HCl]",0.0108 µM
8,"CCc1ccc2cnccc2c1CN[C@H]1C[C@H](Oc2ccc(F)c(C(F)(F)F)c2)C1 [Example 97, (1r,3r)-N-((6-ethylisoquinolin-5-yl)methyl)-3-(4-fluoro-3-(trifluoromethyl)phenoxy)cyclobutan-1-amine, HCl]",0.28 µM
9,"Cc1cc(O[C@H]2C[C@H](NCc3c(F)ccc4cnccc34)C2)cc(F)c1F [Example 54, (1r,3r)-3-(3,4-difluoro-5-methylphenoxy)-N-((6-fluoroisoquinolin-5-yl)methyl)cyclobutan-1-amine]",0.0595 µM
10,"Fc1cc(O[C@H]2C[C@H](NCc3c(F)ccc4cnccc34)C2)ccc1C(F)F [Example 101, (1r,3r)-3-(4-(difluoromethyl)-3-fluorophenoxy)-N-((6-fluoroisoquinolin-5-yl)methyl)cyclobutan-1-amine]",0.0147 µM
11,"O=C(Cc1c(F)cc(CO)c2cnccc12)N[C@H]1C[C@H](Oc2ccc(F)c(C(F)(F)F)c2)C1 [Example 103, N-((1r,3r)-3-(4-fluoro-3-(trifluoromethyl)phenoxy)cyclobutyl)-2-(6-fluoro-8-(hydroxymethyl)isoquinolin-5-yl)acetamide]",0.00044 µM
12,"OCCC(O)c1cc(F)c(CNC2CC(Oc3ccc(F)c(C(F)(F)F)c3)C2)c2ccncc12 (racemic) [Example 9 racemic, 1-(6-fluoro-5-((((1r,3r)-3-(4-fluoro-3-(trifluoromethyl)phenoxy)cyclobutyl)amino)methyl)isoquinolin-8-yl)propane-1,3-diol]",0.00058 µM
13,"Fc1ccc2cnccc2c1CN[C@H]1C[C@H](Oc2cccc(C(F)(F)F)c2)C1 [Example 71, (1r,3r)-N-((6-fluoroisoquinolin-5-yl)methyl)-3-(3-(trifluoromethyl)phenoxy)cyclobutan-1-amine, HCl]",0.0316 µM
14,"Fc1ccc2cnccc2c1CN[C@H]1C[C@H](Oc2cccc(C3(C(F)(F)F)CCO3)c2)C1 (some centres unmarked) [Example 44, (1r,3r)-N-((6-fluoroisoquinolin-5-yl)methyl)-3-(3-(2-(trifluoromethyl)oxetan-2-yl)phenoxy)cyclobutan-1-amine]",0.0326 µM
15,"Cc1ccc2cnccc2c1CN[C@H]1C[C@H](Oc2ccc(F)c(C(F)(F)F)c2)C1 [Example 1, (1r,3r)-3-(4-fluoro-3-(trifluoromethyl)phenoxy)-N-((6-methylisoquinolin-5-yl)methyl)cyclobutan-1-amine, HCl]",0.0208 µM
16,"Cc1cc(O[C@H]2C[C@H](NCc3c(F)ccc4cnccc34)C2)cc(C(F)(F)F)n1 [Example 106, (1r,3r)-N-((6-fluoroisoquinolin-5-yl)methyl)-3-((2-methyl-6-(trifluoromethyl)pyridin-4-yl)oxy)cyclobutan-1-amine]",1.65 µM
17,"Cc1ccc(O[C@H]2C[C@H](NCc3c(F)ccc4cnccc34)C2)cc1C [Example 79, (1r,3r)-3-(3,4-dimethylphenoxy)-N-((6-fluoroisoquinolin-5-yl)methyl)cyclobutan-1-amine, HCl]",0.147 µM
18,"OCc1cc(F)c(CN[C@H]2C[C@H](Oc3ccc4c(c3)OC(F)(F)O4)C2)c2ccncc12 [Example 47, (5-((((1r,3r)-3-((2,2-difluorobenzo[d][1,3]dioxol-5-yl)oxy)cyclobutyl)amino)methyl)-6-fluoroisoquinolin-8-yl)methanol, HCl]",0.0238 µM

row,Compound,IC50
1,"NCC(O)c1cc(F)c(CN[C@H]2C[C@H](Oc3ccc(F)c(C(F)(F)F)c3)C2)c2ccncc12 (some centres unmarked) [Example 104, 2-amino-1-(6-fluoro-5-((((1r,3r)-3-(4-fluoro-3-(trifluoromethyl)phenoxy)cyclobutyl)amino)methyl)isoquinolin-8-yl)ethan-1-ol]",2.15 µM
2,"OCC[C@@H](O)c1cc(F)c(CN[C@H]2C[C@H](Oc3ccc(F)c(C(F)(F)F)c3)C2)c2ccncc12 (single isomer, unassigned; peak 2) [Example 9 peak 2]",0.0137 µM
3,"Nc1cc2c(CC(=O)N[C@H]3C[C@H](Oc4ccc(F)c(C(F)(F)F)c4)C3)c(F)ccc2cn1 [Example 69, 2-(3-amino-6-fluoroisoquinolin-5-yl)-N-((1r,3r)-3-(4-fluoro-3-(trifluoromethyl)phenoxy)cyclobutyl)acetamide]",0.00015 µM
4,"Fc1ccc(O[C@H]2C[C@H](NCc3cccc4cncnc34)C2)cc1C(F)(F)F [Example 87, (1r,3r)-3-(4-fluoro-3-(trifluoromethyl)phenoxy)-N-(quinazolin-8-ylmethyl)cyclobutan-1-amine, HCl]",0.321 µM
5,"Fc1ccc2cnccc2c1CN[C@H]1C[C@H](Oc2nc(C(F)(F)F)cs2)C1 [Example 107, (1r,3r)-N-((6-fluoroisoquinolin-5-yl)methyl)-3-((4-(trifluoromethyl)thiazol-2-yl)oxy)cyclobutan-1-amine]",1.91 µM
6,"Fc1ccc(NC2CC(NCc3c(F)ccc4cnccc34)C2)cc1C(F)(F)F (centres unmarked) [Example 63, N^1-(4-fluoro-3-(trifluoromethyl)phenyl)-N^3-((6-fluoroisoquinolin-5-yl)methyl)cyclobutane-1,3-diamine]",0.0986 µM
7,"Fc1ccc(S[C@H]2C[C@H](NCc3cccc4cnccc34)C2)cc1C(F)(F)F [Example 99, (1r,3r)-3-((4-fluoro-3-(trifluoromethyl)phenyl)thio)-N-(isoquinolin-5-ylmethyl)cyclobutan-1-amine, HCl]",0.362 µM
8,"O=C(Cc1cccc2cnccc12)N[C@H]1C[C@H](Oc2ccc(F)c(C(F)(F)F)c2)C1 [Example 65, N-((1r,3r)-3-(4-fluoro-3-(trifluoromethyl)phenoxy)cyclobutyl)-2-(isoquinolin-5-yl)acetamide]",0.00098 µM
9,"Nc1cc2c(CN[C@H]3C[C@H](Oc4ccc(F)cc4F)C3)c(F)ccc2cn1 [Example 15, 5-((((1r,3r)-3-(2,4-difluorophenoxy)cyclobutyl)amino)methyl)-6-fluoroisoquinolin-3-amine, HCl]",0.051 µM
10,"COc1c(F)cc(O[C@H]2C[C@H](NCc3c(F)ccc4cnccc34)C2)cc1F [Example 49, (1r,3r)-3-(3,5-difluoro-4-methoxyphenoxy)-N-((6-fluoroisoquinolin-5-yl)methyl)cyclobutan-1-amine]",0.0163 µM
11,"Nc1cc2c(CN[C@H]3C[C@H](Oc4ccc(F)c(C(F)(F)F)c4)C3)c(F)cc(CO)c2cn1 [Example 18, (3-amino-6-fluoro-5-((((1r,3r)-3-(4-fluoro-3-(trifluoromethyl)phenoxy)cyclobutyl)amino)methyl)isoquinolin-8-yl)methanol, HCl]",0.00163 µM
12,"N#Cc1ncc(O[C@H]2C[C@H](NCc3c(F)ccc4cnccc34)C2)cn1 [Example 108, 5-((1r,3r)-3-(((6-fluoroisoquinolin-5-yl)methyl)amino)cyclobutoxy)pyrimidine-2-carbonitrile]",2.51 µM
13,"Fc1ccc(O[C@H]2C[C@H](NCc3c(F)ccc4cnccc34)C2)c(F)n1 [Example 55, (1r,3r)-3-((2,6-difluoropyridin-3-yl)oxy)-N-((6-fluoroisoquinolin-5-yl)methyl)cyclobutan-1-amine]",0.352 µM
14,"Fc1ccc2cnccc2c1CN[C@H]1C[C@H](Oc2cccc(OC(F)F)c2)C1 [Example 29, (1r,3r)-3-(3-(difluoromethoxy)phenoxy)-N-((6-fluoroisoquinolin-5-yl)methyl)cyclobutan-1-amine, HCl]",0.0623 µM
15,"O=C(O)C(O)c1cc(F)c(CN[C@H]2C[C@H](Oc3ccc(F)c(C(F)(F)F)c3)C2)c2ccncc12 (some centres unmarked) [Example 72, 2-(6-fluoro-5-((((1r,3r)-3-(4-fluoro-3-(trifluoromethyl)phenoxy)cyclobutyl)amino)methyl)isoquinolin-8-yl)-2-hydroxyacetic acid]",0.0521 µM
16,"Cc1c(F)cc(O[C@H]2C[C@H](NCc3c(F)ccc4cnccc34)C2)cc1F [Example 52, (1r,3r)-3-(3,5-difluoro-4-methylphenoxy)-N-((6-fluoroisoquinolin-5-yl)methyl)cyclobutan-1-amine]",0.0271 µM
17,"OCc1ccc(CN[C@H]2C[C@H](Oc3ccc(F)c(C(F)(F)F)c3)C2)c2ccncc12 [Example 25, (5-((((1r,3r)-3-(4-fluoro-3-(trifluoromethyl)phenoxy)cyclobutyl)amino)methyl)isoquinolin-8-yl)methanol, HCl]",0.1 µM
